Source: article PMC9897032, “How Many Sirtuin Genes Are Out There? Evolution of Sirtuin Genes in Vertebrates With a Description of a New Family Member” (Molecular Biology and Evolution, 2023)

Biological target: T1, human SIRT3 (Homo sapiens, UniProt Q9NTG7)
T1 construct: recombinant enzyme supplied with Abcam fluorometric SIRT3 activity kit
T1 sequence (Q9NTG7 102-399): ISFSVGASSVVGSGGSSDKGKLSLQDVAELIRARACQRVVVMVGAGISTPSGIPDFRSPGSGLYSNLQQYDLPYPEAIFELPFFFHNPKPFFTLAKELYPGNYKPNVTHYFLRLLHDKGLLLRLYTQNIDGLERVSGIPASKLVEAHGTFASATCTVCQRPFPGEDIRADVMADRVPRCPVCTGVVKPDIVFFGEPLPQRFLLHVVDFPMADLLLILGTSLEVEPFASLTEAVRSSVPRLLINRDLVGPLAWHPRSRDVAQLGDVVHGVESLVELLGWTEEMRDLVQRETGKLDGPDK
Assay: fluorometric deacetylation assay, acetylated substrate peptide (Abcam ab156067)
Assay type: biochemical
Details: activator; 37 °C; NAD+ dependent assay

`Oc1ccc(/C=C/c2cc(O)cc(O)c2)cc1` [REV, resveratrol] was tested, and the “fold increase in activity at 100 μM” value was 1.6 ± 0.1 fold.
